Results: patent US10080739B2, “Aryl imidazoles and their use as anti-cancer agents” (Aptose Biosciences Inc., priority 2003, dated 2018)
Read-outs that look alike come from different tables or passages of the source.

Experiments:
[1] = tested on: human non-small cell lung cancer cells (H460); experiment: XTT cell proliferation assay, H460 cells, 48 h; assay type: cell-based; conditions: read-out: % Survival
Experimental: (§1) Selected compounds of Formula I were tested for anti-cancer activity in vitro using a human colon carcinoma cells (HT-29) and human non-small cell lung cancer cells (H460). The cells were maintained in α-MEM medium (Wisent, St-Bruno, Qc) supplemented with 10% FBS, and grown at 37° C. in an atmosphere of 5% CO2. Cells were transferred onto 150 mm tissue culture plates and grown until sub-confluency (70-80%) prior to their use.
(§2) The anti-cancer activity in vitro was evaluated by a cell proliferation assay based on the ability of live cells to reduce the tetrazolium salt XTT to orange coloured compounds of formazan (XTT cell proliferation kit II, Roche Applied Science, Montreal, QC).
(§3) Approximately 4×10^3 colon cancer cells (HT-29) or 2×10^3 non-small cell lung cancer cells (NCI-H460) in 100 μl of complete culture medium were plated onto 96-well microtiter plates and incubated overnight at 37° C. The medium was then removed by inverting the plate and patting on a sterile absorbent cloth. Fifty μl of medium containing the test compound at either 25 or 100 μM, were added to the wells containing cells and incubated at 37° C. in an atmosphere of 5% CO2 for 48 h. Following incubation, 25 μl of an XTT reaction mixture (XTT at a final concentration of 0.3 mg/ml) were added to each well and the plates were incubated for a further 4 h. The absorbance of each sample was then determined at a wavelength of 490 nm/650 nm as reference. Each compound was tested in duplicate and the results are reported as averages.

[2] = tested on: human colon carcinoma cells (HT-29); experiment: XTT cell proliferation assay, HT-29 cells, 48 h; assay type: cell-based; conditions: read-out: % Survival; for viability at 25 µM: 25 μM compound; for viability at 100 µM: 100 μM compound
Experimental: as §1, §2, §3

[3] = NCI/DTP data; cited from earlier work
[4] = NCI-H460 cells, 25 μM compound, 48 h, XTT
[5] = NCI-H460 cells, 100 μM compound, 48 h, XTT

| SMILES | melting point [°C] | viability at 25 µM [1, 4] [%] | viability at 100 µM [1, 5] [%] | viability at 25 µM [2] [%] | viability at 100 µM [2] [%] | viability at 25 µM ([1]; NCI-H460, 48 h) [%] | viability at 100 µM ([1]; NCI-H460, 48 h) [%] | activity in the In Vivo Anticancer Drug Screen [3] |
| --- | --- | --- | --- | --- | --- | --- | --- | --- |
| c1ccc(-c2[nH]c3ccccc3c2-c2nc3c4ccccc4c4ccccc4c3[nH]2)cc1 | 240 to 242 |  |  |  |  |  |  |  |
| O=[N+]([O-])c1ccc2c3ccccc3c3nc(-c4c[nH]c5ccccc45)[nH]c3c2c1 | 365 to 366 |  |  |  |  |  |  |  |
| Brc1ccc2[nH]cc(C=Nc3ccc4c5ccccc5c5nc(-c6c[nH]c7ccc(Br)cc67)[nH]c5c4c3)c2c1 | 236 to 237 |  |  |  |  |  |  |  |
| Cc1[nH]c2ccccc2c1-c1nc2c3ccccc3c3ccc([N+](=O)[O-])cc3c2[nH]1 | 335 to 336 |  |  |  |  |  |  |  |
| Nc1ccc2c3ccccc3c3nc(-c4c[nH]c5ccc(Br)cc45)[nH]c3c2c1 | 300 to 303 |  |  |  |  |  |  |  |
| CCc1c2c(nc3ccc(OC(=O)N4CCC(N5CCCCC5)CC4)cc13)-c1cc3c(c(=O)n1C2)COC(=O)[C@]3(O)CC [CPT-11, irinotecan, reference compound] |  | 32.2 | 6.1 | 82.3 | 51.1 |  |  |  |
| CC(=O)n1c(-c2c(C)n(C(C)=O)c3ccccc23)nc(-c2ccccc2)c1-c1ccccc1 [Compound 5] |  | 102 | 106 | 111 | 111 |  |  |  |
| Brc1ccc2[nH]cc(-c3nc(-c4ccccc4)c(-c4ccccc4)[nH]3)c2c1 [Compound 6] |  | 10.4 | 1.9 | 11.7 | 3.2 |  |  |  |
| COc1ccc(-c2nc(-c3c(C)[nH]c4ccccc34)[nH]c2-c2ccc(OC)cc2)cc1 [Compound 9] |  | 98.2 | 8.4 | 68.3 | 15.1 |  |  |  |
| COc1ccc(-c2nc(-c3c[nH]c4ccc(Br)cc34)[nH]c2-c2ccc(OC)cc2)cc1 [Compound 10] |  | 26.9 | 2.7 | 25.8 | 7.6 |  |  |  |
| Cc1[nH]c2ccccc2c1-c1nc(-c2ccc(N(C)C)cc2)c(-c2ccc(N(C)C)cc2)[nH]1 [Compound 11] |  | 98.8 | 102 | 108 | 94.3 |  |  |  |
| Cc1[nH]c2ccccc2c1-c1nc(-c2ccc(Br)cc2)c(-c2ccc(Br)cc2)[nH]1 [Compound 13] |  | 102 | 96.2 | 106 | 82.4 |  |  |  |
| Brc1ccc(-c2nc(-c3c[nH]c4ccc(Br)cc34)[nH]c2-c2ccc(Br)cc2)cc1 [Compound 14] |  | 83.5 | 1.8 | 55.2 | 3.8 |  |  |  |
| Cc1[nH]c2ccccc2c1-c1nc(-c2ccc(Cl)cc2)c(-c2ccc(Cl)cc2)[nH]1 [Compound 19] | 165 to 167 | 89.2 | 27.3 | 106 | 37.1 |  |  |  |
| Clc1ccc(-c2nc(-c3c[nH]c4ccc(Br)cc34)[nH]c2-c2ccc(Cl)cc2)cc1 [Compound 20] |  | 98.6 | 82.1 | 100 | 28.1 |  |  |  |
| Cc1ccc(-c2nc(-c3c(C)[nH]c4ccccc34)[nH]c2-c2ccc(C)cc2)cc1 [Compound 23] |  | 96.3 | 92.1 | 98.2 | 45.7 |  |  |  |
| Cc1[nH]c2ccccc2c1-c1nc(-c2cccs2)c(-c2cccs2)[nH]1 [Compound 25] |  | 99.5 | 89 | 63.9 | 39.8 |  |  |  |
| Cc1[nH]c2ccccc2c1-c1nc(-c2ccncc2)c(-c2ccc(F)cc2)[nH]1 [Compound 27] |  | 93.5 | 43.1 | 62.3 | 35 |  |  |  |
| Cc1[nH]c2ccccc2c1-c1nc(-c2cccc([N+](=O)[O-])c2)c(-c2cccc([N+](=O)[O-])c2)[nH]1 [Compound 29] |  |  |  | 37.1 | 20.9 | 73.8 | 20.2 |  |
| Cc1[nH]c2ccccc2c1-c1nc(-c2ccccc2)c(-c2ccc(Cl)cc2)[nH]1 [Compound 31] |  | 94 | 37.6 | 98.6 | 24.9 |  |  |  |
| Clc1ccc(-c2[nH]c(-c3c[nH]c4ccc(Br)cc34)nc2-c2ccccc2)cc1 [Compound 32] |  | 15 | 2.9 | 22.7 | 7.7 |  |  |  |
| Cc1[nH]c2ccccc2c1-c1nc(-c2ccccc2)c(-c2ccc([N+](=O)[O-])cc2)[nH]1 [Compound 33] |  | 73.4 | 9.4 | 56.1 | 10 |  |  |  |

| SMILES | melting point [°C] | viability at 25 µM [1, 4] [%] | viability at 100 µM [1, 5] [%] | viability at 25 µM [2] [%] | viability at 100 µM [2] [%] | viability at 25 µM ([1]; NCI-H460, 48 h) [%] | viability at 100 µM ([1]; NCI-H460, 48 h) [%] | activity in the In Vivo Anticancer Drug Screen [3] |
| --- | --- | --- | --- | --- | --- | --- | --- | --- |
| O=[N+]([O-])c1ccc(-c2[nH]c(-c3c[nH]c4ccc(Br)cc34)nc2-c2ccccc2)cc1 [Compound 34] |  | 17.4 | 7.6 | 22.8 | 10.8 |  |  |  |
| Cc1[nH]c2ccccc2c1-c1nc(-c2ccccc2)c(-c2ccc(F)cc2)[nH]1 [Compound 35] |  | 83.8 | 1.2 | 44.1 | 2.5 |  |  |  |
| Fc1ccc(-c2[nH]c(-c3c[nH]c4ccc(Br)cc34)nc2-c2ccccc2)cc1 [Compound 36] |  | 24.5 | 2.4 | 31.6 | 4.7 |  |  |  |
| Cc1[nH]c2ccccc2c1-c1nc(-c2ccc(Oc3ccccc3)cc2)c(-c2ccc(Oc3ccccc3)cc2)[nH]1 [Compound 38] |  | 98.8 | 12.2 | 67 | 35.7 |  |  |  |
| Cc1[nH]c2ccc(Br)cc2c1-c1nc(-c2ccc(Oc3ccccc3)cc2)c(-c2ccc(Oc3ccccc3)cc2)[nH]1 [Compound 39] |  | 98.1 | 17 | 96.2 | 53 |  |  |  |
| Cc1[nH]c2ccccc2c1-c1nc(-c2ccc(-c3ccccc3)cc2)c(-c2ccc(-c3ccccc3)cc2)[nH]1 [Compound 40] |  | 97.6 | 7.7 | 79.1 | 36.7 |  |  |  |
| Brc1ccc2[nH]cc(-c3nc(-c4ccc(-c5ccccc5)cc4)c(-c4ccc(-c5ccccc5)cc4)[nH]3)c2c1 [Compound 41] | 155 to 158 |  |  |  |  |  |  |  |
| Cc1[nH]c2ccccc2c1-c1nc(-c2ccccc2)c(-c2ccc(Br)cc2)[nH]1 [Compound 42] |  | 66.1 | 1.2 | 59.9 | 1.8 |  |  |  |
| Brc1ccc(-c2[nH]c(-c3c[nH]c4ccc(Br)cc34)nc2-c2ccccc2)cc1 [Compound 43] |  | 18.8 | 3 | 28 | 5.7 |  |  |  |
| Cc1[nH]c2ccccc2c1-c1nc2c3ccccc3c3ccccc3c2[nH]1 [Compound 44] |  |  |  | 63.6 | 6.5 | 77.3 | 3.4 |  |
| c1ccc2c(-c3nc4c5ccccc5c5ccccc5c4[nH]3)c[nH]c2c1 [Compound 46] |  |  |  | 16.1 | 4.5 | 11.5 | 1.9 |  |
| COc1ccc(-c2nc(-c3ccccc3)c(-c3ccccc3)[nH]2)c(OC)c1 [Compound 73] |  | 89.2 | 53.5 | 65 | 62.2 |  |  |  |
| COC(=O)c1ccc2c(-c3nc(-c4ccccc4)c(-c4ccccc4)[nH]3)c[nH]c2c1 [Compound 83] |  | 101 | 109 | 100 | 110 |  |  |  |
| COc1ccc(-c2nc(-c3c[nH]c4ccc(Br)cc34)[nH]c2-c2ccccc2)cc1OC [Compound 96] | 265 to 266 |  |  |  |  |  |  |  |
| Oc1ccc(-c2[nH]c(-c3c[nH]c4ccc(Br)cc34)nc2-c2ccccc2)cc1O [Compound 140] | 210 to 215 |  |  |  |  |  |  |  |
| COc1ccc(-c2nc(-c3c[nH]c4ccccc34)[nH]c2-c2ccccc2)cc1OC [Compound 152] | 258 to 259 |  |  |  |  |  |  |  |
| Cc1[nH]c2ccccc2c1-c1nc(-c2cccc3ccccc23)c(-c2ccccc2)[nH]1 [Compound 180] | 239 to 240 |  |  |  |  |  |  |  |
| Brc1ccc2[nH]cc(-c3nc(-c4cccc5ccccc45)c(-c4ccccc4)[nH]3)c2c1 [Compound 181] | 308 to 310 |  |  |  |  |  |  |  |
| Nc1ccc(-c2[nH]c(-c3c[nH]c4ccccc34)nc2-c2ccccc2)cc1 [Compound 182] | 264 to 265 |  |  |  |  |  |  |  |
| c1ccc2c(-c3nc4ccccc4[nH]3)cccc2c1 [Compound 144033] |  |  |  |  |  |  |  | None of these three compounds showed any activity |
| CN(C)c1ccc(-c2nc3c4ccccc4c4ccccc4c3[nH]2)cc1 [NCI #322334] |  |  |  |  |  |  |  | None of these three compounds showed any activity |
